# Test results taken from ChEMBL document CHEMBL1147910, “Novel C-5 aminomethyl pyrrolotriazine dual inhibitors of EGFR and HER2 protein tyrosine kinases” (Bioorg Med Chem Lett, 2007).
# pIC50: −log10 of the molar value.
# Experiments:
# HT-29 = experiment: Antiproliferative activity against human HT29 cells
# [1] = Drug level in BALB/c mouse plasma at 50 mg/kg, po after 4 hrs; type: ADME, organism-based; set-up: dose 50 mg/kg, route oral
# [2] = target: Receptor tyrosine-protein kinase erbB-2 (Homo sapiens, UniProt P04626); experiment: Inhibition of human HER2
# Sequence of Receptor tyrosine-protein kinase erbB-2 (P04626 whole entry): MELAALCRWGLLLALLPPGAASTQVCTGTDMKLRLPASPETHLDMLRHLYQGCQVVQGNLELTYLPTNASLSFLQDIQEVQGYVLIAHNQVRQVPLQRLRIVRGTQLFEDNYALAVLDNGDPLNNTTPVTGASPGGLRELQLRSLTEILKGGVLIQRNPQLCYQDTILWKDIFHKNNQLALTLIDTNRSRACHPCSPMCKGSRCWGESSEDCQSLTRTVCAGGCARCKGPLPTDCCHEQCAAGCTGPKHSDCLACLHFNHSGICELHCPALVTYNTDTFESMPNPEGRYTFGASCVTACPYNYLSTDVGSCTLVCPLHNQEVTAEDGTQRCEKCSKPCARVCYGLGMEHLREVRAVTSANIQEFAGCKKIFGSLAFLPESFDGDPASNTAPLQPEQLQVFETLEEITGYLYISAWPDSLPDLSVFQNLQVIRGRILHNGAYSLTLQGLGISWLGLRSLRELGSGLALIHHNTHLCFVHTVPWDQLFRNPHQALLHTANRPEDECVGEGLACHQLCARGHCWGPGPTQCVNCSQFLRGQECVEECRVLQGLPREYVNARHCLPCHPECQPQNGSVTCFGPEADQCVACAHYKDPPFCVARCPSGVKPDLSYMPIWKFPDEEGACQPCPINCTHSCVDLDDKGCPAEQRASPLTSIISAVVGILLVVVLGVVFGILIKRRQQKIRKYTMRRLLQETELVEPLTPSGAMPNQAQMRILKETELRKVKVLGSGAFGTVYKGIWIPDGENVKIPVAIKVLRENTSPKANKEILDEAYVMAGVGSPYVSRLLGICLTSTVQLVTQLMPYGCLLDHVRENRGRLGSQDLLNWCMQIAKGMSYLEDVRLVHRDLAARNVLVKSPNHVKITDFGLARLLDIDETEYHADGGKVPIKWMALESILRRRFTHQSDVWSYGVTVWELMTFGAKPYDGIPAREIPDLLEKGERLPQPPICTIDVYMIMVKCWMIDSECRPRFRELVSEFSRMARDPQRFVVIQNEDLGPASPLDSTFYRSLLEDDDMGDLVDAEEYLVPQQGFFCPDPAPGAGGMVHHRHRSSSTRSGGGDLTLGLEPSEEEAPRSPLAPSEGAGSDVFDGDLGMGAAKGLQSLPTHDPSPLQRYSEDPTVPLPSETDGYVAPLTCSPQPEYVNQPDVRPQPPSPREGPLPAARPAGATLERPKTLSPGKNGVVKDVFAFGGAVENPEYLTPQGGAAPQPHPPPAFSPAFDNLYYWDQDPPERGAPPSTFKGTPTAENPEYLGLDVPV
# NCI-N87 [3] = experiment: Antiproliferative activity against human N87 cells; type: functional, cell-based
# [4] = target: Epidermal growth factor receptor (Homo sapiens, UniProt P00533)
# Sequence of Epidermal growth factor receptor (P00533 whole entry): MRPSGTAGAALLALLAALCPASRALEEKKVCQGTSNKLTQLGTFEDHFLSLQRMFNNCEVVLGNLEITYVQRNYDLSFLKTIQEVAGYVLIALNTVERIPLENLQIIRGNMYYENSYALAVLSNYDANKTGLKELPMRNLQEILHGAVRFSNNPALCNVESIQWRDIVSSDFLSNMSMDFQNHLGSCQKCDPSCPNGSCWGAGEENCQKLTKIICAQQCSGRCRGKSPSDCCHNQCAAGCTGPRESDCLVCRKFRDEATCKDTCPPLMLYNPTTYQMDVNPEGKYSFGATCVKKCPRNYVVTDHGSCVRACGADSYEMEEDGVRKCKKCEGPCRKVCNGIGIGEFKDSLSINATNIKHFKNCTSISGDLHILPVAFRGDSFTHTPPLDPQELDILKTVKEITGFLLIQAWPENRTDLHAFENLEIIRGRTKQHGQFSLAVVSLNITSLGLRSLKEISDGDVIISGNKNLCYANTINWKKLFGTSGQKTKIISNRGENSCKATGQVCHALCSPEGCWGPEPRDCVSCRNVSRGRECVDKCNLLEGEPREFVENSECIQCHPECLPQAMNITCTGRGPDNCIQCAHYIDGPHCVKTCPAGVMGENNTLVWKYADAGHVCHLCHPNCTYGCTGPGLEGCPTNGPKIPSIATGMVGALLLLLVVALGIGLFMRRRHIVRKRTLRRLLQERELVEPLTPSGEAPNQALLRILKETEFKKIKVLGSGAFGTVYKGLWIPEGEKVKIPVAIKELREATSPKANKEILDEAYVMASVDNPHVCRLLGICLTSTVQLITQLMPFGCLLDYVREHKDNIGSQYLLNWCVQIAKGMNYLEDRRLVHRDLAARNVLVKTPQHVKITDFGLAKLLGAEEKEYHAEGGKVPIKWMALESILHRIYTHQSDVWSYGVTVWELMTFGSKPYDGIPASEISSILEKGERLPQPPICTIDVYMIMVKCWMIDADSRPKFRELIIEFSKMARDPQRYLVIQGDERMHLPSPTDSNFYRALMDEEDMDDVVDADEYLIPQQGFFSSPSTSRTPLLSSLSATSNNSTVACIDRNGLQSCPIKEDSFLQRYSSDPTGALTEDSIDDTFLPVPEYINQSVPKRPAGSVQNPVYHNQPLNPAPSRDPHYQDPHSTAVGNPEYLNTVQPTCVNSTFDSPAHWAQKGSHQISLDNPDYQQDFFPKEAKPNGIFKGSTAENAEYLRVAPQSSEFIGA
# [5] = Metabolic stability in mouse liver microsomes at 3 uM in presence of NADPH after 10 min; type: ADME, Microsome
# [6] = Cmax in BALB/c mouse at 90 mg/kg, po; type: ADME, organism-based; set-up: dose 90 mg/kg, route oral; conditions: in vivo
# [7] = Tmax in BALB/c mouse at 90 mg/kg, po; type: ADME, organism-based; set-up: dose 90 mg/kg, route oral; conditions: in vivo
# [8] = AUC in BALB/c mouse at 90 mg/kg, po; type: ADME, organism-based; set-up: dose 90 mg/kg, route oral; conditions: plasma
# [9] = Half life in BALB/c mouse at 10 mg/kg, iv; type: ADME, organism-based; set-up: dose 10 mg/kg, route intravenous; conditions: in vivo
# [10] = Mean residence time in BALB/c mouse at 10 mg/kg, iv; type: ADME, organism-based; set-up: dose 10 mg/kg, route intravenous; conditions: in vivo
# [11] = Plasma clearance in BALB/c mouse at 10 mg/kg, iv; type: ADME, organism-based; set-up: dose 10 mg/kg, route intravenous
# [12] = Volume of distribution at steady state in BALB/c mouse at 10 mg/kg, iv; type: ADME, organism-based; set-up: dose 10 mg/kg, route intravenous; conditions: in vivo, read-out: Vss
# [13] = Oral bioavailability in BALB/c mouse at 90 mg/kg, po; type: ADME, organism-based; conditions: in vivo
# Plasma = experiment: Fraction unbound ligand in BALB/c mouse plasma; type: ADME, cell-free
# [14] = Aqueous solubility at pH 3.9; type: physicochemical; conditions: buffer
# [15] = Aqueous solubility in phosphate buffer at pH 7.5; type: physicochemical
# NCI-N87 [16] = experiment: Antitumor activity against human N87 cells xenografted in athymic mouse at 90 mg/kg, po twice daily after 14 days; conditions: 336 h, read-out: TGI
# [17] = Antitumor activity against human GEO cells xenografted in athymic mouse at 90 mg/kg, po twice daily after 14 days; conditions: 336 h, read-out: TGI
# [18] = Toxicity in human N87 cells xenografted athymic mouse; type: organism-based, NCI-N87; conditions: in vivo
# [19] = Mortality in human N87 cells xenografted athymic mouse at 180 mg/kg, po; type: organism-based, NCI-N87; set-up: dose 180 mg/kg, route oral; conditions: in vivo, read-out: Activity
# NCI-N87 [20] = experiment: animal or person; conditions: Mus musculus, NCI-N87, po, 336 h, read-out: TGI
# Description: (§1) Antitumor activity against human N87 cells xenografted in athymic mouse at 135 mg/kg, po twice daily after 14 days
# NCI-N87 [21] = experiment: animal or person; conditions: Mus musculus, NCI-N87, po, 336 h, read-out: TGI; remark: listed apart in the source
# Description: Antitumor activity against human N87 cells xenografted in athymic mouse at 180 mg/kg, po twice daily after 14 days
# NCI-N87 [22] = experiment: animal or person; conditions: Mus musculus, NCI-N87, po, 336 h, read-out: TGI; remark: listed apart in the source
# Description: as §1
# A2780 = experiment: Antiproliferative activity against human A2780 cells; type: functional, cell-based
pIC50 (HT-29),concentration at 4 h [1] [nM],pIC50 [2],pIC50 [4],metabolic rate [5] [nmol/min/mg],SMILES,pIC50 (NCI-N87 [3]),also measured
< 5.00,27,< 6.00,6.00,–,COC(=O)C1CCN(Cc2ccn3ncnc(Nc4ccc5c(cnn5Cc5cccc(F)c5)c4)c23)CC1,< 5.30,–
–,6300,7.09,7.05,0,Fc1cccc(Cn2ncc3cc(Nc4ncnn5ccc(CN6CCNCC6)c45)ccc32)c1,6.14,–
–,4100,6.21,6.15,–,CC(=O)N1CCN(Cc2ccn3ncnc(Nc4ccc5c(cnn5Cc5cccc(F)c5)c4)c23)CC1,–,–
–,480,6.92,6.77,–,CN1CCN(Cc2ccn3ncnc(Nc4ccc5c(cnn5Cc5cccc(F)c5)c4)c23)CC1,6.31,–
< 5.00,44,6.12,6.62,0.27,O=C1CCN(Cc2ccn3ncnc(Nc4ccc5c(cnn5Cc5cccc(F)c5)c4)c23)CCN1,6.70,–
< 5.00,1510,7.80,7.59,0.12,O[C@H]1CNCCN(Cc2ccn3ncnc(Nc4ccc5c(cnn5Cc5cccc(F)c5)c4)c23)C1,6.80,–
< 5.10,93,6.92,6.89,0.21,CN1CCCN(Cc2ccn3ncnc(Nc4ccc5c(cnn5Cc5cccc(F)c5)c4)c23)CC1,6.21,–
< 5.00,–,7.41,6.11,–,O=C1CNCCN(Cc2ccn3ncnc(Nc4ccc5c(cnn5Cc5cccc(F)c5)c4)c23)C1,6.19,–
< 5.00,600,6.96,–,0.23,O=C(O)C1CCN(Cc2ccn3ncnc(Nc4ccc5c(cnn5Cc5cccc(F)c5)c4)c23)CC1,< 5.30,–
< 5.00,–,6.70,6.46,–,O=C1CN(Cc2ccn3ncnc(Nc4ccc5c(cnn5Cc5cccc(F)c5)c4)c23)CCN1,6.28,–
–,–,7.33,7.35,–,OCCNCc1ccn2ncnc(Nc3ccc4c(cnn4Cc4cccc(F)c4)c3)c12,5.71,–
–,–,–,–,–,CN(CCO)Cc1ccn2ncnc(Nc3ccc4c(cnn4Cc4cccc(F)c4)c3)c12,5.92,–
–,–,6.44,6.30,–,Fc1cccc(Cn2ncc3cc(Nc4ncnn5ccc(CN6CCCC6)c45)ccc32)c1,–,–
–,–,6.77,6.72,–,COC1CNCCN(Cc2ccn3ncnc(Nc4ccc5c(cnn5Cc5cccc(F)c5)c4)c23)C1 (configuration not stated),5.43,pIC50 (A2780): < 5.30
< 5.00,880,7.12,6.70,0.12,O[C@@H]1CNCCN(Cc2ccn3ncnc(Nc4ccc5c(cnn5Cc5cccc(F)c5)c4)c23)C1,6.02,–
–,–,6.51,6.85,–,NC(=O)C1CCN(Cc2ccn3ncnc(Nc4ccc5c(cnn5Cc5cccc(F)c5)c4)c23)CC1,6.40,–
–,–,7.13,6.89,0,CC1CNCCN(Cc2ccn3ncnc(Nc4ccc5c(cnn5Cc5cccc(F)c5)c4)c23)C1 (configuration not stated),6.17,pIC50 (A2780): < 5.68
< 5.00,–,6.92,6.68,–,CS(=O)(=O)N1CCCN(Cc2ccn3ncnc(Nc4ccc5c(cnn5Cc5cccc(F)c5)c4)c23)CC1,6.48,–
–,250,7.20,7.17,0.29,OC1CCN(Cc2ccn3ncnc(Nc4ccc5c(cnn5Cc5cccc(F)c5)c4)c23)CC1,6.85,–
< 5.00,4100,–,–,0.14,Cc1ccn2ncnc(Nc3ccc4c(cnn4Cc4cccc(F)c4)c3)c12,–,–

SMILES,pIC50 (HT-29),concentration at 4 h [1] [nM],pIC50 [2],pIC50 [4],metabolic rate [5] [nmol/min/mg],pIC50 (NCI-N87 [3]),also measured
Fc1cccc(Cn2ncc3cc(Nc4ncnn5ccc(CN6CCCNCC6)c45)ccc32)c1,< 5.44,1300,7.57,7.48,0.05,–,Cmax [6]: 7950 nM; Tmax [7]: 3 h; AUC [8]: 48.9 µM·h; half-life [9]: 3.7 h; MRT [10]: 4 h; clearance [11]: 39 mL/min/kg; Vd [12]: 9.5 L/kg; bioavailability [13]: 77%; PB (Plasma): 98.4%; Solubility [14]: 9.7 mg/kg; Solubility [15]: 0.012 mg/kg; inhibition in vivo at 90 mg/kg (NCI-N87 [16]): 97%; inhibition in vivo at 90 mg/kg [17]: 90%; MTD [18]: 180 mg/kg; mortality [19]: 12%; inhibition in vivo at 135 mg/kg (NCI-N87 [20]): 111%; inhibition in vivo at 180 mg/kg (NCI-N87 [21]): 121%; inhibition in vivo at 135 mg/kg (NCI-N87 [22]): 78%
